Holding throughout (format): binding
One test has as its target 14-3-3/ABL1 complex (Homo sapiens, UniProt P00519+P31947). The test can be described thus: STD NMR dose response.
Test [1] addresses T1, 14-3-3σ/TAZ complex (Homo sapiens, UniProt P31947+Q9GZV5). The test can be described thus: STD NMR dose response.
Test [2] has as its target T1, 14-3-3σ/TAZ complex. The test can be described thus: STD NMR. Particulars: 300 μM fragment, 10 μM 14-3-3σ, 100 μM TAZ peptide, relative to apo-14-3-3σ.

The values below come from paper doi:10.1101/2022.02.23.481635v1 (biorxiv, 2022).

T1 sequence (P31947 whole entry, other chains not shown, the tested form may be a part): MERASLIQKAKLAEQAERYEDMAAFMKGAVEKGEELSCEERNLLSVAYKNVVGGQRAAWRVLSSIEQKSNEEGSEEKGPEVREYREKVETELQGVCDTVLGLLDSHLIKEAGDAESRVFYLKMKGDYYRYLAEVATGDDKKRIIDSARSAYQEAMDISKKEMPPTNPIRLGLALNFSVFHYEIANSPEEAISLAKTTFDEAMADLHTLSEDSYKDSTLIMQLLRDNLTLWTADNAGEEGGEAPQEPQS
Sequence of 14-3-3/ABL1 complex (P31947 whole entry, other chains not shown): as the sequence (P31947 whole entry, other chains not shown, the tested form may be a part) above

In the case of `COC(=O)c1cccc(C(=N)N)c1` [F5], the EC50 turned out to be 8700 ± 400 µM on 14-3-3/ABL1 complex and 1800 ± 400 µM on 14-3-3σ/TAZ complex [1].
`N=C(N)c1cc2ccccc2o1` [F9] gave an EC50 at 14-3-3σ/TAZ complex [1] of 2300 ± 300 µM.
For the compound `CCN1CCN(c2cc(C(=N)N)ccn2)CC1` [F4], the “fold STD signal (I+peptide / I-peptide)” value on 14-3-3σ/TAZ complex [2] was 1.9 fold.
